Assay [1] relates to Pa13 gene. The assay is described as follows: Pa13 gene expression by real-time RT-PCR in HuH7 hepatocytes. It is filed as cell-based, human. The note with it: about 20-24 h, vehicle control = 100. An excerpt:
(§1) Human hepatocyte HuH7 cells, which are epithelial cells of liver, were obtained from Japan Health Science Research Resources Bank (Osaka, Japan). Human primary adipocytes, which are connective tissue cells specialized for the synthesis and storage of fat, were obtained from Zen-Bio, Inc (Research Triangle Park, NC). Human primary skeletal muscle cells (SKMC) were obtained from Cambrex Bio Science (Walkersville, Md.). PPARα agonists, Wy14643 (Agatha, et al, 2000, Archives of Biochemistry and Biophysics 380:353-359) and fenofibrates were obtained from Cayman Chemical (Ann Arbor, Mich.) and Sigma (St Louis, Mo.), respectively.
(§2) Human HuH7 cells were cultured in Dulbecco's Modified Eagle Medium with 10% Fetal Bovine Serum (Gibco, N.Y.). Cells were treated with charcoal-stripped, delipidated calf serum (5%) (Sigma, St Louis, Mo.) for about 4-18 hours. Then, cells were treated with different concentrations of PPARα agonist (Wy14643 or fenofibrates) for about 20-24 h. Human SKM cells were cultured in Skeletal Muscle Growth Medium (Cambrex Bio Science, Walkersville, Md.), and were treated with different concentrations of PPARα agonist (Wy14643 or fenofibrates) for about 18-20 hours. Human primary adipocytes were cultured in Preadipocyte Medium, (Cat #PM—1, Zen-Bio, Inc., Research Triangle Park, NC), and were treated with different concentrations of PPARα agonist (Wy14643 or fenofibrates) for about 18-20 hours.
(§3) Total RNA was purified from cultured cells following the protocol provided by the manufacturer (Trizon method, Invitrogen Inc. Ca). The polymerase chain reaction (PCR) primers and fluorescent probes (TagMan probes) for Pa9, Pa13, and Pa21 were designed from GenBank sequences of accession numbers W30988, AB000584, and NM_080725, respectively. The primers and probes were designed using the software PrimerDesign (Applied Biosystems, Foster City, Calif.). The PCR primers for Pa9 were SEQ ID NO: 7, (5-[…]) and SEQ ID NO: 8 (5-[…]). […] The PCR primers for Pa13 were SEQ ID NO: 10 (5-[…], T) and SEQ ID NO: 11 (5-[…] T). […] The PCR primers for Pa21 were SEQ ID NO: 13 (5-[…] C) and SEQ ID NO: 14 (5-[…]). […] All primers and probes were synthesized by Keystone Labs (Camarillo, Calif.).
(§4) Reverse transcription (RT) and PCR were conducted in one step using “One-Step RT-PCR Master Mix Reagent” kit (Applied Biosystems, Foster City, Calif.) in ABI PRISM 7700 Sequence Detection System (Applied Biosystems). Each reaction was performed in a total volume of 25 μl containing 40 ng of total RNA. The reaction condition was: 48° C. for 30 minutes, 60° C. for 30 minutes, 94° C. for 5 minutes, followed by 40 cycles of 94° C. for 20 seconds and 60° C. for 1 minute. The primers for 18S ribosomal RNA were developed and provided by Applied Biosystems. The measurement of human 18S ribosomal RNA was used as an internal control for normalization of measuring and loading errors. PCR data were collected by Ct value (the cycle number at which logarithmic PCR plots cross a calculated threshold line) according to the manufacturer's guidelines and the value was used to determine the Δ^Ct (Ct of the target gene minus the Ct of 18S ribosomal RNA controls). Relative mRNA level was calculated using the equation 2^−ΔΔCt as described previously (Heid et al., 1996, Genome Res. 6:986-994).
In general terms: Real-time PCR tracks product formation cycle by cycle.

For assay [2], the system named is murine FIAF (fasting induced adipose factor). The note with it: PPARα wild type mouse liver cells; cited from earlier work.
The test system of assay [3] is Pa21 gene. The assay is described as follows: Pa21 gene expression by real-time RT-PCR in HuH7 hepatocytes. It counts as cell-based, human. The note with it: about 20-24 h, vehicle control = 100.
Source text: as §1, §2, §3, §4

Assay [4] has as its system Pa13 gene. The assay is described as follows: Pa13 gene expression by real-time RT-PCR in primary adipocytes. It counts as cell-based, human. Conditions: about 18-20 hours, vehicle control = 100.
Source text: as §1, §2, §3, §4

Assay [5] relates to Pa21 gene. The assay is described as follows: Pa21 gene expression by real-time RT-PCR in primary adipocytes. It counts as cell-based, human. Conditions: about 18-20 hours, vehicle control = 100.
Source text: as §1, §2, §3, §4

Take `Cc1cccc(Nc2cc(Cl)nc(SCC(=O)O)n2)c1C` [Wy14643]: the “Pa13 (N26311) gene expression, Percentage ± SE (%)” value with Pa13 gene [1] (3 uM) is reported as 70 ± 28%; in the assay on Pa13 gene [1] (10 uM), 100 ± 4%; in the assay with Pa13 gene [1] (30 uM) it was 140 ± 26.4%; in the assay with Pa13 gene [1] (100 uM) it was 130 ± 17.7%; in the assay on Pa13 gene [1] (300 uM) it was 720 ± 36.4%; in the assay with Pa13 gene [4] (10 uM), 56 ± 10%. Further, the “Pa13 (N26311) gene expression, Percentage ± SE (%)” value with Pa13 gene [4] (50 uM) came out at 55 ± 2%; in the assay with Pa13 gene [4] (250 uM), 214 ± 7.9%. Besides, in assay [2], the “expression of murine FIAF” value is recorded as “increased”. For the same compound, the “Pa21 (H4960) gene expression, Percentage ± SE (%)” value stood at 145.5 ± 21.9% in the assay on Pa21 gene [3] (3 uM); 163.6 ± 35% with Pa21 gene [3] (10 uM); 372.7 ± 17.8% in the assay on Pa21 gene [3] (30 uM); 227.3 ± 14.8% in the assay on Pa21 gene [3] (100 uM); 481.8 ± 12.1% in the assay with Pa21 gene [3] (300 uM); 92 ± 10% with Pa21 gene [5] (10 uM). Besides, the “Pa21 (H4960) gene expression, Percentage ± SE (%)” value in the assay with Pa21 gene [5] (50 uM) came out at 108 ± 2%; in the assay on Pa21 gene [5] (250 uM), 314 ± 2.5%.

These data come from patent US20050191668A1, “Methods of using peroxisome proliferator-activated receptor alpha target genes” (priority 2004, published 2005).
